Test results from US4737497A, “Bis-dioxopiperazine derivatives, antitumor agents comprising them and compositions containing them” (Zenyaki Kogyo Kabushiki Kaisha, priority 1983, dated 1988).
Converted amounts (≈) assume the structure as drawn.

How the values were obtained:
Lewis lung carcinoma = assay: Growth inhibition test on Lewis lung carcinoma; format: in vivo, mice (BDF1 (C57BL/6×DBA/2)); details: Mus musculus, po, 480 h, orally, once a day for 8 days, tumor weight on 20th day, read-out: G.I. (growth inhibition); for inhibition in vivo at 60 mg/kg: 60 mg/kg daily; for inhibition in vivo at 40 mg/kg: 40 mg/kg daily
Description: The treated group to which the compound of the present invention was administered consisted of seven mice, while the control group consisted of ten mice. Six weeks old male mice [BDF1 (C57BL/6×DBA/2), 25±2 g of body weight] were employed as host animals.
Tumor cells (5×10^5) of Lewis lung carcinoma were transplanted subcutaneously in inguinal region of each mouse. The treatment began one day after the transplantation and the prescribed dose of each test compound was administered orally to the mice once a day for 8 days.
On the 20th day after the transplantation, the tumors of all the mice were excised and weighed. Antitumor activity of the test compound was evaluated by the rate of growth inhibition (G.I.%) which was calculated with the following formula. [formula] T: mean tumor weight of treated mice C: mean tumor weight of control mice

B-16 melanoma = assay: Growth inhibition test on B-16 melanoma; format: in vivo, mice (BDF1 (C57BL/6×DBA/2)); details: Mus musculus, B16, po, 480 h, orally, once a day for 8 days, tumor weight on 20th day, read-out: G.I. (growth inhibition); for inhibition in vivo at 60 mg/kg: 60 mg/kg daily; for inhibition in vivo at 20 mg/kg: 20 mg/kg daily; for inhibition in vivo at 40 mg/kg: 40 mg/kg daily
Description: The treated group to which the compound of the present invention was administered consisted of seven mice, while the control group consisted of ten mice. Six weeks old male mice [BDF1 (C57BL/6×DBA/2), 25+2 g of body weight] were employed as host animals.
Tumor cells (5×10^5) of B-16 melanoma were transplanted subcutaneously in inguinal region of each mouse. The treatment began one day after the transplantation and the prescribed dose of each test compound was administered orally to the mice once a day for 8 days.
On the 20th day after the transplantation, the tumors of all the mice were excised and weighed. Antitumor activity of the test compound was evaluated by the rate of growth inhibition (G.I.%) which was calculated in the same manner as used in the animal test on Lewis lung carcinoma.

[1] = test system: Colon adenocarcinoma No. 38; assay: Growth inhibition test on Colon adenocarcinoma No. 38; format: in vivo, mice (BDF1); details: orally, once a day for 8 days, tumor weight on 30th day
Description: The treated group to which the compound of the present invention was administered consisted of seven mice, while the control group consisted of ten mice. Six weeks old male mice [BDF1 (G57BL/6×DBA/2), 25±2 g of body weight] were employed as hosts animals.
Tumor cells (40 mg of fragment) of Colon adenocarcinoma No. 38 were transplanted subcutaneously in inguinal region of each mouse. The treatment began one day after the transplantation and the prescribed dose of each test compound was administered orally to the mice once a day for 8 days.
On the 30th day after the transplantaion, the tumors of all the mice were excised and weighed. Antitumor activity of the test compound was evaluated by the rate of growth inhibition (G.I.%) which was calculated in the same manner as used in the animal test on Lewis lung carcinoma.

[2] = Animal test on acute toxicity; details: mouse, in vivo, ip; intraperitoneal, male ddY mice, observed 14 days, Litchfield-Wilcoxon method
Description: The test group to which the compound of the present invention was administered consisted of ten mice. Five weeks old male mice (ddY, 23±2 g of body weight) were employed as test animals.

Sarcoma 37 = assay: Growth inhibition test on Sarcoma 37; format: in vivo, mice (K-M); details: once a day for 10 days; for G.I. (growth inhibition): tumor weight on 12th day; for ED50: Mus musculus, 288 h
Description: The treated group to which the compound of the present invention was administered consisted of eight mice, while the control group consisted of sixteen mice. Four weeks old female mice (K-M, 20±2 g of body weight) were employed as host animals.
Tumor cells (0.2 ml of 1:5 suspension) of Sarcoma 37 were transplanted subcutaneously in the flank of each mouse. The treatment began one day after the transplantation and the prescribed dose (1.56-50 mg/kg) of dl-1,2-bis(4-morpholinomethyl-3,5-dioxopiperazin-1-yl)-propane was administered intraperitoneally (i.p.) or orally (p.o.) to the mice once a day for 10 days.
(§1) On the 12th day after the transplantation, the tumors of all the mice were excised and weighed. Antitumor activity of the test compound was evaluated by the rate of growth inhibition (G.I.%) which was calculated in the same manner as used in the animal test on Lewis lung carcinoma.

Hepatoma 22 = assay: Growth inhibition test on Hepatoma 22; format: in vivo, mice (K-M); details: 25 mg/kg daily, orally, once a day for 9 days; tumor weight on 12th day
Description: The treated group to which the compound of the present invention was administered consisted of ten mice, while the control group consisted of twenty mice. Four weeks old female mice (K-M, 20±2 g of body weight) were employed as host animals.
Tumor cells (a 2 mm^3 fragment) of Hepatoma 22 were transplanted subcutaneously in the flank of each mouse. The treatment began one day after the transplantation and the prescribed dose of the test compound was administered orally to the mice once a day for 9 days.
as §1

[3] = Animal test on subacute toxicity; details: mouse, in vivo, ip; intraperitoneal, once a day for 8 days, female K-M mice, observed 14 days, Bliss-Finney method
Description: The test group to which the compound of the present invention was administered consisted of ten mice, while the control group consisted of ten mice. Four weeks old female mice (K-M, 20±2 g of body weight) were employed as test animals.
LD50 value of the subacute toxicity was determined by the Bliss-Finney statistical method.

Solubility in water = format: physicochemical; details: 25° C.

For `CC1CC(C)CN(CN2C(=O)CN(CCN3CC(=O)N(CN4CC(C)CC(C)C4)C(=O)C3)CC2=O)C1` (centres unmarked) [1,2-Bis[4-(3,5-dimethylpiperidinomethyl)-3,5-dioxopiperazin-1-yl]-ethane], the inhibition in vivo at 60 mg/kg (Lewis lung carcinoma) was 67.2%, the inhibition in vivo at 60 mg/kg (B-16 melanoma) was 68.9% and the “G.I. (growth inhibition)” value ([1]; 60 mg/kg daily) was 83.1%. It also gave an LD50 at 336 h [2] of 400 to 500 mg/kg.

In the case of `CC(CN1CC(=O)N(CN2CCN(C)CC2)C(=O)C1)N1CC(=O)N(CN2CCN(C)CC2)C(=O)C1` (racemic) [dl-1,2-Bis[4-(N-methylpiperazinomethyl)-3,5-dioxopiperazin-1-yl]-propane], the inhibition in vivo at 60 mg/kg (Lewis lung carcinoma) is reported as 53.5% and the LD50 at 336 h [2] is reported as 300 to 400 mg/kg.

`CC(CN1CC(=O)N(CN2CCN(c3ccccc3)CC2)C(=O)C1)N1CC(=O)N(CN2CCN(c3ccccc3)CC2)C(=O)C1` (racemic) [dl-1,2-Bis[4-(N-phenylpiperazinomethyl)-3,5-dioxopiperazin-1-yl]-propane] showed an inhibition in vivo at 40 mg/kg (Lewis lung carcinoma) of 89%, an inhibition in vivo at 20 mg/kg (B-16 melanoma) of 71% and an LD50 at 336 h [2] of 100 mg/kg.

For `O=C1CN(CCN2CC(=O)N(CN3CCN(c4ccccc4)CC3)C(=O)C2)CC(=O)N1CN1CCN(c2ccccc2)CC1` [1,2-Bis[4-(N-phenylpiperazinomethyl)-3,5-dioxopiperazin-1-yl]-ethane], the inhibition in vivo at 60 mg/kg (Lewis lung carcinoma) was 78.9%, the inhibition in vivo at 60 mg/kg (B-16 melanoma) was 91.9% and the “G.I. (growth inhibition)” value ([1]; 60 mg/kg daily) was 97.9%. It also gave an LD50 at 336 h [2] of 200 to 300 mg/kg.

With `CC(CN1CC(=O)N(CN2CCN(c3ccccc3)CC2)C(=O)C1)N1CC(=O)NC(=O)C1` (racemic) [dl-1-[4-(N-Phenylpiperazinomethyl)-3,5-dioxopiperazin-1-yl]-2-(3,5-dioxopiperazin-1-yl)-propane] the inhibition in vivo at 40 mg/kg (Lewis lung carcinoma) was 76.2%, the inhibition in vivo at 20 mg/kg (B-16 melanoma) was 60.8% and the “G.I. (growth inhibition)” value ([1]; 40 mg/kg daily) was 93.5%. For the same compound, the LD50 at 336 h [2] was over 350 mg/kg.

Compound `O=C1CN(CCN2CC(=O)N(CN3CCSCC3)C(=O)C2)CC(=O)N1CN1CCSCC1` [1,2-Bis(4-thiomorpholinomethyl-3,5-dioxopiperazin-1-yl)-ethane] has an inhibition in vivo at 60 mg/kg (B-16 melanoma) of 73.5%.

With `CC(CN1CC(=O)N(CN2CCSCC2)C(=O)C1)N1CC(=O)N(CN2CCSCC2)C(=O)C1` (racemic) [dl-1,2-Bis(4-thiomorpholinomethyl-3,5-dioxopiperazin-1-yl)-propane] the inhibition in vivo at 40 mg/kg (B-16 melanoma) was 77.5% and the LD50 at 336 h [2] was 330 mg/kg.

With `CC(CN1CC(=O)N(CN2CCOCC2)C(=O)C1)N1CC(=O)N(CN2CCOCC2)C(=O)C1` (racemic) [dl-1,2-Bis(4-morpholinomethyl-3,5-dioxopiperazin-1-yl)-propane] the inhibition in vivo at 60 mg/kg (Lewis lung carcinoma) was 89.3%, the inhibition in vivo at 60 mg/kg (B-16 melanoma) was 93.8% and the “G.I. (growth inhibition)” value ([1]; 60 mg/kg daily) was 91.6%. For the same compound, the “G.I. (growth inhibition)” value (Sarcoma 37; 1.56 mg/kg daily, i.p.) was 33.2%, the “G.I. (growth inhibition)” value (Sarcoma 37; 3.12 mg/kg daily, i.p.) was 56.1% and the “G.I. (growth inhibition)” value (Sarcoma 37; 3.12 mg/kg daily, p.o.) was 39.3%. The “G.I. (growth inhibition)” value (Sarcoma 37; 6.25 mg/kg daily, i.p.) was 72.7%, the “G.I. (growth inhibition)” value (Sarcoma 37; 6.25 mg/kg daily, p.o.) was 68.8% and the “G.I. (growth inhibition)” value (Sarcoma 37; 12.5 mg/kg daily, i.p.) was 82.4%. The “G.I. (growth inhibition)” value (Sarcoma 37; 12.5 mg/kg daily, p.o.) was 94.2%, the “G.I. (growth inhibition)” value (Sarcoma 37; 25 mg/kg daily, i.p.) was 94.6% and the “G.I. (growth inhibition)” value (Sarcoma 37; 25 mg/kg daily, p.o.) was 100%. For the same compound, the “G.I. (growth inhibition)” value (Sarcoma 37; 50 mg/kg daily, i.p.) was 100%, the ED50 (Sarcoma 37; ip) was 3.1 mg/kg and the ED50 (Sarcoma 37; po) was 4.3 mg/kg. For the same compound, the “G.I. (growth inhibition)” value (Hepatoma 22) was 42.7%, the LD50 at 336 h [2] was 255 mg/kg and the LD50 at 336 h [3] was 178 mg/kg. For the same compound, the solubility (Solubility in water) was 20 mg/mL (≈ 42.9 mM).

Work on `CC1CC(C)CN(CN2C(=O)CN(CC(C)N3CC(=O)N(CN4CC(C)CC(C)C4)C(=O)C3)CC2=O)C1` (racemic) [dl-1,2-Bis[4-(3,5-dimethylpiperidinomethyl)-3,5-dioxopiperazin-1-yl]-propan] yielded an inhibition in vivo at 60 mg/kg (Lewis lung carcinoma) of 77.4% and an inhibition in vivo at 60 mg/kg (B-16 melanoma) of 91.2%.

In the case of `O=C1CN(CCN2CC(=O)N(CN3CCOCC3)C(=O)C2)CC(=O)N1CN1CCOCC1` [1,2-bis(4-morpholinomethyl-3,5-dioxopiperazin-1-yl)-ethane, reference compound], the inhibition in vivo at 60 mg/kg (Lewis lung carcinoma) is reported as 22.6%, the inhibition in vivo at 60 mg/kg (B-16 melanoma) is reported as 48.9% and the “G.I. (growth inhibition)” value ([1]; 60 mg/kg daily) is reported as 72.8%. The “G.I. (growth inhibition)” value (Hepatoma 22) was 12.9%, the LD50 at 336 h [2] was 280 mg/kg and the LD50 at 336 h [3] was 59.3 mg/kg.

In the case of `CC(CN1CC(=O)N(CN2CCOCC2)C(=O)C1)N1CC(=O)NC(=O)C1` (racemic) [dl-1-(4-Morpholinomethyl-3,5-dioxopiperazin-1-yl)-2-(3,5-dioxopiperazin-1-yl)-propane], the inhibition in vivo at 40 mg/kg (Lewis lung carcinoma) is reported as 83.9%, the inhibition in vivo at 40 mg/kg (B-16 melanoma) is reported as 76.1% and the “G.I. (growth inhibition)” value ([1]; 40 mg/kg daily) is reported as 74.1%.
